Data on four compounds can be found in PMC3901304 (ACS medicinal chemistry letters, 2013).

This assay relates to T. gondii cells in culture. Put plainly: Toxoplasma cell culture study. The conditions noted are these: for T. gondii in cells at Day 4: no drug control 1140000; for T. gondii in media at Day 4: no drug control 3710000. The class given is cell-based, Toxoplasma gondii.

In the case of `Nc1nc2[nH]c3cccc(Sc4ccc5ccccc5c4)c3c2c(=O)[nH]1` [Compound 1], where the note is “compound at 5 μM”, the “T. gondii in cells at Day 4” value is 340000 and the “T. gondii in media at Day 4” value was determined as 2350000.

With `CCc1nc(N)nc(N)c1-c1ccc(Cl)cc1` [PM, pyrimethamine, reference compound], for the setting “PM at 3 μM”, the “T. gondii in cells at Day 4” value is recorded as under 2500 and the “T. gondii in media at Day 4” value is under 25000.

Turning to `Nc1nc2[nH]c3cccc(Sc4ccccc4)c3c2c(=O)[nH]1` [Compound 2], for the setting “compound at 5 μM”, the “T. gondii in cells at Day 4” value worked out at 140000 and the “T. gondii in media at Day 4” value was determined as 100000.

As for `Nc1nc2[nH]c3cccc(Sc4cccc5ccccc45)c3c2c(=O)[nH]1` [Compound 3], the “effect on T. gondii in culture compared with PM” value (3 at 5 μM versus PM at 3 μM) is “equivalent to PM at 3 μM”. For the same compound, for the setting “compound at 5 μM”, the “T. gondii in cells at Day 4” value is given as under 2500 and the “T. gondii in media at Day 4” value is under 25000.
